Laboratory results published in the supplement of paper PMC8671470.

What was measured:
Test in all cases: cell viability (% survival relative to DMSO control, bortezomib = 0%); higher = less cytotoxic
Conditions in all cases: 72 h
KU-812 = test system: KU-812
Procedure, shortened: (§1)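 Percent survival figures are means of duplicate wells. They were obtained by CellTiter-Glo luminescence after 10 AML and 5 CML cell lines spent 72 h at 37 °C with 5% CO2 in 384-well plates with compounds at 1, 10, 100, 1000 or 10000 nM. Vehicle was set to 100% and a 10 µM positive control to 0%.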

NOMO-1 = test system: NOMO-1
Procedure, shortened: as §1

Mono-Mac-6 = test system: Mono-Mac-6
Procedure, shortened: as §1

SHI-1 = test system: SHI-1
Procedure, shortened: as §1

| SMILES | cell viability (KU-812; 1 nM) [%] | cell viability (KU-812; 10 nM) [%] | cell viability (KU-812; 100 nM) [%] | cell viability (KU-812; 1000 nM) [%] | cell viability (KU-812; 10000 nM) [%] | cell viability (NOMO-1; 1 nM) [%] | cell viability (NOMO-1; 10 nM) [%] | cell viability (NOMO-1; 100 nM) [%] | cell viability (NOMO-1; 1000 nM) [%] | cell viability (NOMO-1; 10000 nM) [%] | cell viability (Mono-Mac-6; 1 nM) [%] | cell viability (Mono-Mac-6; 10 nM) [%] | cell viability (Mono-Mac-6; 100 nM) [%] | cell viability (Mono-Mac-6; 1000 nM) [%] | cell viability (Mono-Mac-6; 10000 nM) [%] | cell viability (SHI-1; 1 nM) [%] | cell viability (SHI-1; 10 nM) [%] | cell viability (SHI-1; 100 nM) [%] | cell viability (SHI-1; 1000 nM) [%] | cell viability (SHI-1; 10000 nM) [%] |
| --- | --- | --- | --- | --- | --- | --- | --- | --- | --- | --- | --- | --- | --- | --- | --- | --- | --- | --- | --- | --- |
| Clc1ccc2c(c1Cl)CNCC2 | 99.9 | 92.5 | 94.4 | 118 | 87.8 | 95.4 | 100 | 101 | 102 | 90.9 | 95.3 | 103 | 104 | 106 | 77.4 | 116 | 122 | 110 | 112 | 96.1 |
| O=C(O)C(S)=Cc1c[nH]c2ccc(F)cc12 | 102 | 103 | 101 | 112 | 102 | 103 | 97.9 | 107 | 116 | 94.8 | 104 | 94.7 | 93.5 | 74.2 | 74.1 | 103 | 97.6 | 104 | 102 | 88.5 |
| CC(C)Cc1sc(N)nc1-c1ccc(P(=O)(O)O)o1 | 96.3 | 94.9 | 98.7 | 90.6 | 88.2 | 97.7 | 96.9 | 98 | 99.5 | 83.9 | 97.6 | 85.3 | 95.2 | 101 | 86.6 | 106 | 98.3 | 106 | 98.7 | 104 |
| Cl.OC[C@H]1NC[C@@H](O)[C@@H](O)[C@@H]1O [1-Deoxymannojirimycin hydrochloride] | 101 | 89.2 | 95.7 | 98 | 98.1 | 103 | 89.9 | 104 | 99.3 | 92.1 | 108 | 89.9 | 109 | 87.2 | 96.2 | 105 | 96.3 | 98.7 | 110 | 89.5 |
| CN(C)c1nc(O)c2[nH]cnc2n1 [2-Dimethylamino-6-hydroxypurine] | 93.8 | 96.7 | 91 | 94.2 | 103 | 101 | 95.9 | 108 | 102 | 105 | 97.2 | 100 | 86.9 | 99.4 | 113 | 104 | 90.8 | 94.8 | 99.9 | 98.2 |
| O=C(O)c1cc2sccc2[nH]1 [4H-thieno[3,2-b]pyrrole-5-carboxylic acid] | 95.9 | 98.3 | 98.9 | 101 | 108 | 105 | 97.8 | 98.3 | 106 | 110 | 104 | 92.6 | 99.5 | 92.6 | 101 | 108 | 96.4 | 90.4 | 97 | 107 |
| [N-]=[N+]=CC(=O)CC[C@H](N)C(=O)O [6-Diazo-5-oxo-L-norleucine] | 95 | 102 | 110 | 97.3 | 104 | 98.9 | 99.9 | 104 | 97.1 | 106 | 88 | 90.2 | 92.4 | 97.8 | 104 | 110 | 101 | 103 | 104 | 99 |
| Sc1ncnc2nc[nH]c12 [6-mercaptopurine] | 98.9 | 100 | 93 | 59.3 | 54.4 | 108 | 86.7 | 88.6 | 41.5 | 30.5 | 97.2 | 97.7 | 85.9 | 53.7 | 15.5 | 113 | 98.6 | 102 | 66.2 | 32.6 |
| O=C(O)CC[C@H](NC(=O)c1ccc([N+](=O)[O-])cc1)C(=O)O [(S)-2-(4-Nitrobenzamido)pentanedioic acid] | 91.6 | 100 | 98.7 | 96.9 | 89.8 | 92.4 | 95 | 99.6 | 105 | 95.6 | 96 | 103 | 94.9 | 97.6 | 98 | 97.5 | 107 | 102 | 102 | 93.9 |
| O=C1Nc2ccccc2/C1=C\NCCc1ccc(O)c(O)c1 [AC1NZZMF] | 114 | 113 | 108 | 110 | 68.7 | 105 | 111 | 98 | 113 | 99.9 | 105 | 102 | 102 | 96.9 | 74.4 | 88.8 | 108 | 89 | 103 | 90.8 |
| Cc1ccc(S(=O)(=O)NC2c3ccccc3Oc3ccccc32)cc1 [AH-7614] | 93.7 | 101 | 99.1 | 97.7 | 106 | 102 | 102 | 104 | 97.1 | 103 | 101 | 95.7 | 111 | 94.9 | 101 | 105 | 110 | 105 | 97.1 | 85.5 |
| C[C@]12CC[C@H](O)CC1=CC[C@@H]1[C@@H]2CC[C@]2(C)C(c3cccnc3)=CC[C@@H]12 [Abiraterone] | 88.8 | 94.8 | 101 | 108 | 101 | 106 | 104 | 97.6 | 112 | 108 | 97.7 | 101 | 85.2 | 96.1 | 108 | 119 | 108 | 106 | 108 | 112 |
| O=C(COc1ccc(C(=O)c2ccccc2)cc1)NC1CCN(Cc2ccccc2)CC1 [AdipoRon] | 94.6 | 114 | 90.9 | 98.3 | 41.5 | 102 | 107 | 96.3 | 96.7 | 91.1 | 96.3 | 101 | 99.9 | 98.1 | 90.7 | 92.5 | 104 | 96 | 103 | 71.7 |
